The assay deals with SARS-CoV-2. Nature of the assay: Antiviral assay, inhibition of virus-induced cytopathic effect (CPE) of SARS-CoV-2 by MTT assay (Example 1). To be noted: Severe acute respiratory syndrome coronavirus 2, Vero C1008, SARS-CoV-2, Vero E6 (CPE & MTT). On the technique in general: Protection from cytopathic effect is a common read-out in antiviral testing.

A word on the IC50: it is the concentration that gives 50% inhibition. Low values mean greater potency in that assay, high ones weaker potency in that assay.

Consider `O=C[C@H](O)[C@@H](O)[C@H](O)CO` [D-xylose], for which the IC50 (administration at the same time as the virus) is 26.2 mM and half-maximal inhibition (preincubation with cells 6 h before infection) (IC50) was put at 95.5 mM.

Source of the values: patent publication US20260355225A1 (priority 2022, published 2026).
